Assay results: patent publication US7872005B2, “2-substituted heteroaryl compounds” (Synta Pharmaceuticals Corporation, priority 2004, dated 2011)

System: IL-12 production in human PBMC or THP-1 cells
Assay: In vitro inhibition of IL-12 production in stimulated human PBMC or THP-1 cells (ELISA)
Type: cell-based
Conditions: representative in vitro IC50 data
Excerpt: The biological activities of a heterocyclic compound can be evaluated by a number of cell-based assays. One of such assays can be conducted using cells from human peripheral blood mononuclear cells (PBMC) or human monocytic cell line (THP-1). The cells are stimulated with a combination of human interferon-γ (IFNγ) and lipopolysaccharide or a combination of IFNγ and Staphylococcus aureus Cowan I in the presence of a test compound. The level of inhibition of IL-12 production can be measured by determining the amount of p70 by using a sandwich ELISA assay with anti-human IL-12 antibodies. IC50 of the test compound can then be determined. Specifically, PBMC or THP-1 cells are incubated with the test compound. Cell viability was assessed using the bioreduction of MTS [3-(4,5-dimethylthiazol-2-yl)-5-(3-carboxymethoxyphenyl)-2-(4-sulfophenyl)-2H-tetrazolium] (Promega, Madison, Wis.).
Reagents. Staphylococcus aureus Cowan I (SAC) was obtained from Calbiochem (La Jolla, Calif.), and lipopolysaccharide (LPS, Serratia marscencens) was obtained from Sigma (St. Louis, Mo.). Human and mouse recombinant IFNγ were purchased from Boehringer Mannheim (Mannheim, Germany) and Pharmingen (San Diego, Calif.), respectively.
Human In Vitro Assay. Human PBMC were isolated by centrifugation using Ficoll-Paque (Pharmacia Biotech, Uppsala, Sweden) and prepared in RPMI medium supplemented with 10% fetal calf serum (FCS), 100 U/mL penicillin, and 100 μg/mL streptomycin. PBMC were plated in wells of a 96-well plate at a concentration of 5×10^5 cells/well, and primed by adding IFNγ (30 U/mL) for 22 h and stimulated by adding LPS (1 μg/mL), or by adding IFNγ (100 U/mL) and then stimulated by adding SAC (0.01%). A test pyrimidine compound was dissolved in DMSO, and added to wells of the 96-well plate. The final DMSO concentration was adjusted to 0.25% in all cultures, including the compound-free control. Human THP-1 cells were plated in wells, primed by adding IFNγ (100 U/mL) for 22 h and stimulated by adding SAC (0.025%) in the presence of different concentrations of the pyrimidine compound. Cell-free supernatants were taken 18 h later for measurement of cytokines. Cell viability was assessed using the bioreduction of MTS. Cell survival was estimated by determining the ratio of the absorbance in compound-treated groups versus compound-free control.
The supernatant was assayed for the amount of IL-12p40, IL-12p70, or IL-10 by using a sandwich ELISA with anti-human antibodies, i.e., a Human IL-12 p40 ELISA kit from R&D Systems (Berkeley, Calif.), and a Human IL-12 p70 or IL-10 ELISA kit from Endogen (Cambridge, Mass.). Assays were based on the manufacturer's instructions.
The biological activities of pyrimidine compounds were tested on human PBMC or THP-1 cells. Unexpectedly, some of the test compounds have IC50 values as low as <1 nM.

Compound	IC50
Cc1cccc(/C=N/Nc2cc(N3CCOCC3)nc(CCCOC(=S)Nc3cccnc3)n2)c1 [Compound 9, Pyridin-3-yl-thiocarbamic acid O-(3-{4-[N′-(3-methyl-benzylidene)-hydrazino]-6-morpholin-4-yl-pyrimidin-2-yl}-propyl) ester]	< 25 nM
Cc1cccc(/C=N/Nc2cc(N3CCOCC3)nc(CCOC(=O)Nc3ccccc3)n2)c1 [Compound 24, Phenyl-carbamic acid 2-{4-[N′-(3-methyl-benzylidene)-hydrazino]-6-morpholin-4-yl-pyrimidin-2-yl}-ethyl ester]	< 25 nM
Cc1cccc(/C=N/Nc2cc(N3CCOCC3)nc(CCC(C)(C)OC(=O)Nc3cccc(C(F)(F)F)c3)n2)c1 [Compound 27, (3-Trifluoromethyl-phenyl)-carbamic acid 1,1-dimethyl-3-{4-[N′-(3-methyl-benzylidene)-hydrazino]-6-morpholin-4-yl-pyrimidin-2-yl}-propyl ester]	> 50 nM
COc1cccc(NC(=O)OCCCc2nc(N/N=C/c3cccc(C)c3)cc(N3CCOCC3)n2)c1 [Compound 1, (3-Methoxy-phenyl)-carbamic acid 3-{4-[N′-(3-methyl-benzylidene)-hydrazino]-6-morpholin-4-yl-pyrimidin-2-yl}-propyl ester]	25 to 50 nM
Cc1cccc(/C=N/Nc2cc(N3CCOCC3)nc(CCCOC(=O)NC3CCCCC3)n2)c1 [Compound 5, Cyclohexyl-carbamic acid 3-{4-[N′-(3-methyl-benzylidene)-hydrazino]-6-morpholin-4-yl-pyrimidin-2-yl}-propyl ester]	< 25 nM
Cc1cccc(/C=N/Nc2cc(N3CCOCC3)nc(CCCOC(=O)Nc3cccc(C(F)(F)F)c3)n2)c1 [Compound 2, (3-Trifluoromethyl-phenyl)-carbamic acid 3-{4-[N′-(3-methyl-benzylidene)-hydrazino]-6-morpholin-4-yl-pyrimidin-2-yl}-propyl ester]	< 25 nM
Cc1cccc(/C=N/Nc2cc(N3CCOCC3)nc(CCOC(=O)Nc3ccc(Cl)cc3)n2)c1 [Compound 21, (4-Chloro-phenyl)-carbamic acid 2-{4-[N′-(3-methyl-benzylidene)-hydrazino]-6-morpholin-4-yl-pyrimidin-2-yl}-ethyl ester]	25 to 50 nM
Cc1ccc(NC(=O)OC(C)(C)Cc2nc(N/N=C/c3cccc(C)c3)cc(N3CCOCC3)n2)cc1 [Compound 16, p-Tolyl-carbamic acid 1,1-dimethyl-2-{4-[N′-(3-methyl-benzylidene)-hydrazino]-6-morpholin-4-yl-pyrimidin-2-yl}-ethyl ester]	< 25 nM
Cc1ccc(NC(=O)OCCCc2nc(N/N=C/c3cccc(C)c3)cc(N3CCOCC3)n2)cc1 [Compound 3, p-Tolyl-carbamic acid 3-{4-[N′-(3-methyl-benzylidene)-hydrazino]-6-morpholin-4-yl-pyrimidin-2-yl}-propyl ester]	< 25 nM
Cc1cccc(/C=N/Nc2cc(N3CCOCC3)nc(CCCOC(=O)Nc3cccc4ccccc34)n2)c1 [Compound 10, Naphthalen-1-yl-carbamic acid 3-{4-[N′-(3-methyl-benzylidene)-hydrazino]-6-morpholin-4-yl-pyrimidin-2-yl}-propyl ester]	> 50 nM
CCNC(=O)OCCCc1nc(N/N=C/c2cccc(C)c2)cc(N2CCOCC2)n1 [Compound 8, Ethyl-carbamic acid 3-{4-[N′-(3-methyl-benzylidene)-hydrazino]-6-morpholin-4-yl-pyrimidin-2-yl}-propyl ester]	< 25 nM
Cc1cccc(/C=N/N(C)c2cc(N3CCOCC3)nc(CCCOC(=O)Nc3cccc(C(F)(F)F)c3)n2)c1 [Compound 4, (3-Trifluoromethyl-phenyl)-carbamic acid 3-{4-[N-methyl-N′-(3-methyl-benzylidene)-hydrazino]-6-morpholin-4-yl-pyrimidin-2-yl}-propyl ester]	> 50 nM
Cc1cccc(/C=N/Nc2cc(N3CCOCC3)nc(CCCOC(=O)Nc3ccccc3F)n2)c1 [Compound 6, (2-Fluoro-phenyl)-carbamic acid 3-{4-[N′-(3-methyl-benzylidene)-hydrazino]-6-morpholin-4-yl-pyrimidin-2-yl}-propyl ester]	< 25 nM
Cc1cccc(/C=N/Nc2cc(N3CCOCC3)nc(CCC(C)(C)OC(=O)Nc3cccc(C)c3)n2)c1 [Compound 26, m-Tolyl-carbamic acid 1,1-dimethyl-3-{4-[N′-(3-methyl-benzylidene)-hydrazino]-6-morpholin-4-yl-pyrimidin-2-yl}-propyl ester]	25 to 50 nM
Cc1cccc(/C=N/Nc2cc(N3CCOCC3)nc(CCOC(=O)Nc3ccc(C#N)cc3)n2)c1 [Compound 22, (4-Cyano-phenyl)-carbamic acid 2-{4-[N′-(3-methyl-benzylidene)-hydrazino]-6-morpholin-4-yl-pyrimidin-2-yl}-ethyl ester]	< 25 nM
Cc1ccc(NC(=O)OCCc2nc(N/N=C/c3cccc(C)c3)cc(N3CCOCC3)n2)cc1 [Compound 13, p-Tolyl-carbamic acid 2-{4-[N′-(3-methyl-benzylidene)-hydrazino]-6-morpholin-4-yl-pyrimidin-2-yl}-ethyl ester]	< 25 nM
Cc1ccc(NC(=O)OCCCc2nc(N3CCOCC3)cc(N(C)/N=C/c3cccc(C)c3)n2)cc1 [Compound 14, p-Tolyl-carbamic acid 3-{4-[N-methyl-N′-(3-methyl-benzylidene)-hydrazino]-6-morpholin-4-yl-pyrimidin-2-yl}-propyl ester]	< 25 nM
Cc1cccc(/C=N/Nc2cc(N3CCOCC3)nc(CC(C)(C)OC(=O)Nc3cccc(C(F)(F)F)c3)n2)c1 [Compound 29, (3-Trifluoromethyl-phenyl)-carbamic acid 1,1-dimethyl-2-{4-[N′-(3-methyl-benzylidene)-hydrazino]-6-morpholin-4-yl-pyrimidin-2-yl}-ethyl ester]	> 50 nM
Cc1ccc(NC(=O)OCCOc2nc(N/N=C/c3cccc(C)c3)cc(N3CCOCC3)n2)cc1 [Compound 19, p-Tolyl-carbamic acid 2-{4-[N′-(3-methyl-benzylidene)-hydrazino]-6-morpholin-4-yl-pyrimidin-2-yloxy}-ethyl ester]	< 25 nM
Cc1cccc(/C=N/Nc2cc(N3CCOCC3)nc(OCCOC(=O)Nc3cccnc3)n2)c1 [Compound 106, Pyridin-3-yl-carbamic acid 2-{4-[N′-(3-methyl-benzylidene)-hydrazino]-6-morpholin-4-yl-pyrimidin-2-yloxy}-ethyl ester]	< 25 nM
Cc1cccc(/C=N/Nc2cc(N3CCOCC3)nc(CCSc3nnc(-c4ccncc4)[nH]3)n2)c1 [Compound 25, N-(3-Methyl-benzylidene)-N′-{6-morpholin-4-yl-2-[2-(5-pyridin-4-yl-4H-[1,2,4]triazol-3-ylsulfanyl)-ethyl]-pyrimidin-4-yl}-hydrazine]	< 25 nM
Cc1cccc(/C=N/Nc2cc(N3CCOCC3)nc(CCNS(=O)(=O)N(C)C)n2)c1 [Compound 54, 1,1-Dimethyl-3-(2-{4-[N′-(3-methyl-benzylidene)-hydrazino]-6-morpholin-4-yl-pyrimidin-2-yl}-ethyl)-sulfamide]	< 25 nM
CCNC(=O)OCCc1nc(N/N=C/c2cccc(C)c2)cc(N2CCOCC2)n1 [Compound 17, Ethyl-carbamic acid 2-{4-[N′-(3-methyl-benzylidene)-hydrazino]-6-morpholin-4-yl-pyrimidin-2-yl}-ethyl ester]	< 25 nM
Cc1cccc(/C=N/Nc2cc(N3CCOCC3)nc(CCOC(=O)Nc3ccc(C(C)C)cc3)n2)c1 [Compound 20, (4-Isopropyl-phenyl)-carbamic acid 2-{4-[N′-(3-methyl-benzylidene)-hydrazino]-6-morpholin-4-yl-pyrimidin-2-yl}-ethyl ester]	> 50 nM
Cc1cccc(/C=N/Nc2cc(N3CCOCC3)nc(OCC(C)(C)OC(=O)Nc3cccc(C(F)(F)F)c3)n2)c1 [Compound 28, (3-Trifluoromethyl-phenyl)-carbamic acid 1,1-dimethyl-2-{4-[N′-(3-methyl-benzylidene)-hydrazino]-6-morpholin-4-yl-pyrimidin-2-yloxy}-ethyl ester]	< 25 nM
